Patent USRE48097E1, “Cephem compounds, their production and use” (priority 2015, dated 2020)
≈ marks a conversion by molar mass, not a printed value.

Columns and labels:
S. aureus3137 = test: MIC against S. aureus3137; assay type: cell-based, S. aureus; conditions: Table 2, S. aureus3137, MSSA
From the text: (§1) Without limitation, the present cephem compounds alone, or in combination with one or more β-lactamase inhibitors, may provide improved antibacterial efficacy, particularly in antibiotic-resistant bacterial strains. It is believed that the present compounds may be structurally different from known compounds and, as a result, may be more basic in nature. It is an advantage that the present compounds may extend the spectrum of effective bacterial compounds, particularly against previously-resistant bacteria (e.g. ESKAPE organisms), and/or gram negative bacteria, without significant side effects. In a preferred embodiment, the present cephem compound may comprise reference compound ceftazidime, which may be used alone, or in combination with one or more β-lactamase inhibitors, such as NXL-104. As shown, the foregoing composition was tested for minimum inhibitory concentration (MIC, μg/mL) against bacteria listed in Tables 2-3.

S. aureus 3147 = test: MIC against S. aureus 3147; assay type: cell-based; conditions: Table 2, S. aureus 3147, MSSA
From the text: as §1

[1] = system: S. pneumoniae ATCC 700673; test: MIC against S. pneumoniae ATCC 700673; assay type: cell-based; conditions: Table 2, S. pneumoniae ATCC 700673, Pen R
From the text: as §1

E. cloacae 2704 = test: MIC against E. cloacae 2704; assay type: cell-based; conditions: Table 2, E. cloacae 2704, P99
From the text: as §1

E. cloacae 552 = test: MIC against E. cloacae 552; assay type: cell-based; conditions: Table 2, E. cloacae 552, Caz S, IMP S
From the text: as §1

E. cloacae 566 = test: MIC against E. cloacae 566; assay type: cell-based; conditions: Table 2, E. cloacae 566, Caz R, IMP S
From the text: as §1

E. cloacae596 = test: MIC against E. cloacae596; assay type: cell-based, E. cloacae; conditions: Table 2, E. cloacae596, Caz R, IMP S
From the text: as §1

C. freundii 15 = test: MIC against C. freundii 15; assay type: cell-based; conditions: Table 2, C. freundii 15, Caz R, IMP S
From the text: as §1

C. freundii 2003 = test: MIC against C. freundii 2003; assay type: cell-based; conditions: Table 2, C. freundii 2003, Caz R, IMP S
From the text: as §1

C. freundii 2487 = test: MIC against C. freundii 2487; assay type: cell-based; conditions: Table 2, C. freundii 2487, Caz R, IMP S
From the text: as §1

K. pneumoniae 4105 = test: MIC against K. pneumoniae 4105; assay type: cell-based; conditions: K. pneumoniae 4105, KPC-3, TEM-1, SHV-11
Method: (§2) As shown, the foregoing composition was tested for minimum inhibitory concentration (MIC, μg/mL) against bacteria listed in Tables 2-3.

K. pneumoniae 4106 = test: MIC against K. pneumoniae 4106; assay type: cell-based; conditions: K. pneumoniae 4106, KPC-3, TEM-1, SHV-12, SHV-141
Method: as §2

K. pneumoniae 4107 = test: MIC against K. pneumoniae 4107; assay type: cell-based; conditions: K. pneumoniae 4107, KPC-2, TEM-1, SHV-11
Method: as §2

M. morganii 2409 = test: MIC against M. morganii 2409; assay type: cell-based; conditions: Table 2, M. morganii 2409, High level cephase, β-Lactamase producing
From the text: as §1

K. pneumoniae 2697 = test: MIC against K. pneumoniae 2697; assay type: cell-based; conditions: Table 2, K. pneumoniae 2697, IMP-4
From the text: as §1

E. coli 4101 = test: MIC against E. coli 4101; assay type: cell-based; conditions: Table 2, E. coli 4101, CTX-M-14, TEM-1
From the text: as §1

K. baumanii 4094 = test: MIC against K. baumanii 4094; assay type: cell-based; conditions: Table 2, K. baumanii 4094, OXA-51
From the text: as §1

P. aeruginosa 2573 = test: MIC against P. aeruginosa 2573; assay type: cell-based; conditions: Table 2, P. aeruginosa 2573, OXA-10 (Class D)
From the text: as §1

E. cloacae 2689 = test: MIC against E. cloacae 2689; assay type: cell-based; conditions: Table 3, E. cloacae 2689, KPC-2
Method: as §2

E. cloacae 2705 = test: MIC against E. cloacae 2705; assay type: cell-based; conditions: Table 3, E. cloacae 2705, VIM-1, KPC-3type
Method: as §2

E. coli 4103 = test: MIC against E. coli 4103; assay type: cell-based; conditions: Table 3, E. coli 4103, KPC-2, TEM-1, CMY-type
Method: as §2

K. pneumoniae 2712 = test: MIC against K. pneumoniae 2712; assay type: cell-based; conditions: Table 3, K. pneumoniae 2712, KPC-3, VIM-1
Method: as §2

K. pneumoniae 4088 = test: MIC against K. pneumoniae 4088; assay type: cell-based; conditions: Table 3, K. pneumoniae 4088, KPC-3
Method: as §2

[2] = Table 2, in combination with NXL-104
[3] = Table 3, in combination with NXL-104

MIC (S. aureus3137; alone): 32.00 µg/mL
MIC (S. aureus3137; in combination with NXL-104): 32.00 µg/mL
MIC (S. aureus 3147; alone): 8.00 µg/mL
MIC (S. aureus 3147; in combination with NXL-104): 8.00 µg/mL
MIC ([1]; alone): 16.00 µg/mL
MIC ([1]; in combination with NXL-104): 8.00 µg/mL
MIC (E. cloacae 2704; alone): 16.00 µg/mL
MIC (E. cloacae 2704; in combination with NXL-104): 4.00 µg/mL
MIC (E. cloacae 552; alone): 0.50 µg/mL
MIC (E. cloacae 552; in combination with NXL-104): 0.25 µg/mL
MIC (E. cloacae 566; alone): >32 µg/mL
MIC (E. cloacae 566; in combination with NXL-104): 2.00 µg/mL
MIC (E. cloacae596; alone): 4.00 µg/mL
MIC (E. cloacae596; in combination with NXL-104): 1.00 µg/mL
MIC (C. freundii 15; alone): 8.00 µg/mL
MIC (C. freundii 15; in combination with NXL-104): 2.00 µg/mL
MIC (C. freundii 2003; alone): 4.00 µg/mL
MIC (C. freundii 2003; in combination with NXL-104): 1.00 µg/mL
MIC (C. freundii 2487; alone): 16.00 µg/mL
MIC (C. freundii 2487; in combination with NXL-104): 8.00 µg/mL
MIC (K. pneumoniae 4105; Table 2, alone): 32.00 µg/mL (≈ 58.5 µM)
MIC (K. pneumoniae 4105; [2]): 4.00 µg/mL
MIC (K. pneumoniae 4105; Table 3, alone): >32 µg/mL
MIC (K. pneumoniae 4105; [3]): 4 µg/mL
MIC (K. pneumoniae 4106; Table 2, alone): 16.00 µg/mL (≈ 29.3 µM)
MIC (K. pneumoniae 4106; [2]): 4.00 µg/mL
MIC (K. pneumoniae 4106; Table 3, alone): >32 µg/mL
MIC (K. pneumoniae 4106; [3]): 8 µg/mL
MIC (K. pneumoniae 4107; Table 2, alone): 32.00 µg/mL (≈ 58.5 µM)
MIC (K. pneumoniae 4107; [2]): 8.00 µg/mL
MIC (K. pneumoniae 4107; Table 3, alone): >32 µg/mL
MIC (K. pneumoniae 4107; [3]): 4 µg/mL
MIC (M. morganii 2409; alone): 16.00 µg/mL
MIC (M. morganii 2409; in combination with NXL-104): 4.00 µg/mL
MIC (K. pneumoniae 2697; alone): 8.00 µg/mL
MIC (K. pneumoniae 2697; in combination with NXL-104): 2.00 µg/mL
MIC (E. coli 4101; alone): 0.50 µg/mL
MIC (E. coli 4101; in combination with NXL-104): 0.25 µg/mL
MIC (K. baumanii 4094; alone): >32 µg/mL
MIC (K. baumanii 4094; in combination with NXL-104): 32.00 µg/mL
MIC (P. aeruginosa 2573; alone): 8.00 µg/mL
MIC (P. aeruginosa 2573; in combination with NXL-104): 8.00 µg/mL
MIC (E. cloacae 2689; alone): >32 µg/mL
MIC (E. cloacae 2689; in combination with NXL-104): 2 µg/mL
MIC (E. cloacae 2705; alone): >32 µg/mL
MIC (E. cloacae 2705; in combination with NXL-104): >32 µg/mL
MIC (E. coli 4103; alone): >32 µg/mL
MIC (E. coli 4103; in combination with NXL-104): 16 µg/mL
MIC (K. pneumoniae 2712; alone): >32 µg/mL
MIC (K. pneumoniae 2712; in combination with NXL-104): 16 µg/mL
MIC (K. pneumoniae 4088; alone): >32 µg/mL
MIC (K. pneumoniae 4088; in combination with NXL-104): 8 µg/mL
SMILES: CC(C)(O/N=C(\C(=O)N[C@@H]1C(=O)N2C(C(=O)[O-])=C(C[n+]3ccccc3)CS[C@H]12)c1csc(N)n1)C(=O)O [CAZ, ceftazidime, reference compound]
